The results in this text go back to patent US20250387410A1, “TREATMENT OF ANTI-VEGF REFRACTORY OPHTHALMIC RETINAL EYE CONDITIONS” (Eye Co Pty Ltd., priority 2022, published 2025).

The subject of one series is MIO-M1 cells. Kind of series: MTT assay, cell viability of MIO-M1 cells. Format: cell-based, human. The text has this: (§1) The immortalised retinal cells used were as follows: MIO-M1 cells (Muller cell-derived; Müller 1 Moorefields, Institute of Ophthalmology, Dr A. Limb, Institute of Ophthalmology, University College, UK); ARPE19 (RPE-derived; ATCC CRL-2302, American Tissue Culture Collection, VA, USA); and 661W cells (photoreceptor-like derived; kindly gifted by Dr Muayyad R. Al-Ubaidi, Department of Cell Biology, University of Oklahoma Health Sciences Centre, Oklahoma City, OK, USA). Cells were authenticated and validated from Cell Bank Australia.
(§2) The immortalised retinal cell lines MIO-M1, 661W and ARPE19 were used to undertake the MTT assay to assess cell metabolic activity, based on the cell's availability of NAPDH. Treatments included exposure to one of FA (10-0.01 μg/μl, provided by Professor Ben Boyd, Monash University, Australia), TA (10-0.01 μg/p, Honeywell, USA) and Dexamethasone (10-0.0001 μg/μl, Sigma-Aldrich, MO, USA). All corticosteroids used in vitro were dissolved in 20% dimethyl sulfoxide (DMSO) (Sigma-Aldrich, MO, USA) and ultrapure endotoxin 0.1M PBS (Thermo Fisher Scientific, MA, USA). At the 12-hour time point following addition of the corticosteroid, 10p of MTT reagent (Roche, Switzerland) was added to each well. To protect against light, plates were wrapped in foil and stored in the dark at 37° C. for 4 hours at 5.0% CO2. Cells were monitored using a bright field Zeiss Axiovert 200 inverted microscope (Carl Zeiss Meditec, Dublin, CA. USA) for formation of insoluble purple formazan precipitate crystals in viable cells. Subsequently 100p of MTT solubilisation solution was added and once again incubated in darkness at 37° C., 5.0% CO2 for 24 hours. Quantification of the MTT assay was performed by measuring the absorbance at 570 nm using Tecan Infinite® 200 PRO (Tecan, Mannedorf, Switzerland).
(Tetrazolium assays rely on reduction of a dye to a coloured formazan, in cell work by metabolically active cells.)

Series [1] has as its system Il-1b-stimulated MIO-M1 cells. Put plainly: Co-incubation with selective receptor antagonists in Il-1b-stimulated MIO-M1 cells. As to conditions: stimulated Muller (MIO-M1) cells, receptor blockers. It counts as cell-based, human. The method, then:
FIG. 3 Contribution of glucocorticoid and mineralocorticoid receptor signalling to the anti-inflammatory effect of FA in vitro.
IL-1β and TNF-α were administered to MIO-M1 cells to initiate an inflammatory response in order to test the anti-inflammatory properties of the selected corticosteroids. MIO-M1 cells were grown to a cell density of 50,000 cells per well in a 24 well plate using growth media and foetal bovine serum as described (Section 2.1.1). MIO-M1 cells were challenged with either 1 ng/μl of IL-1β or TNF-α (R&D Systems, MN, USA). Experimental wells were treated with either 1 μg/μl FA, TA or Dexamethasone. Twelve hours post addition, growth medium was removed from each well and replaced with 860 μl of TRIzol (Thermo Fisher Scientific, MA, USA), agitated approximately 20 times and then placed in a clean 1.5 ml Eppendorf tube to extract ribonucleic acid (RNA).
Following purification of RNA, cDNA was synthesized using the Bioline Tetro kit (Bioline, Australia) as per the manufacturer's instructions. Quantitative Real Time Polymerase Chain Reaction (QRT-PCR) was undertaken to profile gene expression changes in animal and cell culture samples. TaqMan hydrolysis probes (Applied Biosystems, USA) and Gene Expression Master Mix (Applied Biosystems, USA) were used. A clear 384 well plate (Applied Biosystems, USA) was used with each biological sample plated in duplicate. A reaction mixture per sample was set up and included 0.5 μl cDNA, 4 μl Rnase Free Water, 5 μl Gene Expression Master Mix and 0.5 μl Taqman Primer Probe (Thermo Fisher Scientific), as listed in Table 2.5. The amplification of each sample was undertaken using a QuantStudio 12K Flex QRT-PCR machine (Applied Biosystems, USA). GAPDH was used as the reference gene using the comparative cycle threshold (Ct) method (ΔΔCt), as it is known not to change expression following retinal photo-oxidative damage. Data was analysed using the QuantStudio 12K Flex Software (Applied Biosystems, USA).

A further series deals with 661W cells. Put plainly: MTT assay, cell viability of 661W cells. It counts as cell-based, human.
Text: as §1, §2

The next series concerns ARPE19 cells. Kind of series: MTT assay, cell viability of ARPE19 cells. Format: cell-based, human.
Text: as §1, §2

The test system of series [2] is Ccl2, Il-6, Il-8 expression in MIO-M1 cells. Put plainly: TNF-α stimulation of MIO-M1 cells, cytokine gene expression by QRT-PCR. Format: cell-based, human. The settings on record: 1 μg/μl steroid, 1 ng/μl TNF-α, 12 h, versus TNF alone.
Text: as §1
IL-1β and TNF-α were administered to MIO-M1 cells to initiate an inflammatory response in order to test the anti-inflammatory properties of the selected corticosteroids. MIO-M1 cells were grown to a cell density of 50,000 cells per well in a 24 well plate using growth media and foetal bovine serum as described (Section 2.1.1). MIO-M1 cells were challenged with either 1 ng/μl of IL-1β or TNF-α (R&D Systems, MN, USA). Experimental wells were treated with either 1 μg/μl FA, TA or Dexamethasone. […]
Following purification of RNA, cDNA was synthesized using the Bioline Tetro kit (Bioline, Australia) as per the manufacturer's instructions. Quantitative Real Time Polymerase Chain Reaction (QRT-PCR) was undertaken to profile gene expression changes in animal and cell culture samples. […] Data was analysed using the QuantStudio 12K Flex Software (Applied Biosystems, USA).

In series [3] the test system is C57BL/6J mice, photo-oxidative damage (PD). Put plainly: Photo-oxidative damage (PD) model of retinal degeneration, intravitreal injection. It counts as in vivo, mouse. The settings on record: for ONL thickness (OCT): 1-2 mm and 2-3 mm from the optic nerve, about 1 mg/ml in vitreous; for ONL thickness (OCT) / a-wave and b-wave ERG responses: versus controls; for a-wave and b-wave ERG responses: scotopic; for IBA1+ macrophages in the outer retina: versus control. From the text: All experiments conducted were in accordance with the ARVO Statement for Use of Animals in Ophthalmic and Vision Research, and with approval from the ANU Animal Experimentation Ethics Committee (AEEC, protocol #A2014/56). C57BL/6J mice aged 60 post-natal days were used in this study. Animals were born, reared and held under dim light conditions (5 lux) prior to photo-oxidative damage.
In vivo cross-sectional and fundus images of the mouse retina were acquired using Optical Coherence Tomography (OCT).
Intravitreal injections were performed on C57BL/6J mice aged 60 post-natal days. Treatments included exposure to FA or TA dissolved in Suspension (comprised of 0.5% w/v carboxymethyl cellulose and 0.4% v/v Tween 80). The final concentration of drug in the vitreous chamber is estimated to be as 1 mg/ml.
Age-matched C57BL/6J mice (60 post-natal days) were exposed to continuous 100K lux white LED light for 5 days with access to food and water ad libitum. During this time, 1% atropine sulphate (Minims 1% atropine sulphate eye drops; Bausch and Lomb, USA) was administered to both eyes twice daily to dilate the pupils. Animals were subsequently euthanised with carbon dioxide (CO2).
Electroretinography (ERG) was used to assess the retinal function response of rodents to full-field flash stimuli under scotopic conditions. Dim-reared control and photo-oxidative damaged animals were used, using known methods.
Animals were dark-adapted overnight before the commencement of ERG experiments. Animals were anaesthetised as previously described, and all retinal recordings were undertaken in a dark room with minimal red light source.
Terminal deoxynucleotidyl transferase (Tdt) dUTP nick end labelling (TUNEL) is an established technique used to detect apoptotic and necrotic cells.
The retina was evenly divided into 8 quadrants. Each quadrant was viewed using a confocal microscope (LSM 5, Zeiss, Germany) and TUNEL^+ and IBA1^+ cells were identified and counted. Data were graphed and analysed using Prism 6 software (GraphPad Software, CA, USA).

The mark [4] stands for this setting: 10-0.01 μg/μl, 12 h, compared to DMSO-only group.
[5] abbreviates: 5 days PD, intravitreal, listed as Suspension+FA.

“Also recorded” adds a separate entry of the source.

Consider `CC(=O)OCC(=O)[C@@]1(O)CC[C@H]2[C@@H]3CCC4=CC(=O)CC[C@]4(C)[C@@]3(F)[C@@H](O)C[C@@]21C` [FA, 9-α-Fluoro-11 β. 17 α, 21-trihydroxy-4-pregnene-3, 20 dione acetate], for which the “viability of MIO-M1 cells at 1 μg/μl” value in the series on MIO-M1 cells (1 μg/μl) was “does not significantly alter cell viability”. Also, the “viability of MIO-M1 cells at the highest concentration” value with MIO-M1 cells (10 ug/uL, compared to DMSO-only group) is listed as “slight reduction”. For the same molecule, in the series with MIO-M1 cells (setting [4]), the “viability of MIO-M1 cells (MTT assay)” value is reported as “do not induce toxicity; also recorded: no significant effect”. Further, the “receptor mediating the impact on expression of CCL2, IL-6 and IL-8” value in series [1] was “mediated through the glucocorticoid receptor; also recorded: dependent on glucocorticoid receptor signalling”. In the series on 661W cells (1 μg/μl), the “viability of 661W cells at 1 μg/μl” value is on record as “does not significantly alter cell viability”. For the same molecule, in the series on 661W cells (setting [4]), the “viability of 661W cells (MTT assay)” value was “do not induce toxicity; also recorded: no significant effect”. Further, in the series on ARPE19 cells (1 μg/μl), the “viability of ARPE19 cells at 1 μg/μl” value is “does not significantly alter cell viability”. The “viability of ARPE-19 cells (MTT assay)” value in the series with ARPE19 cells (setting [4]) is given as “do not induce toxicity; also recorded: no significant effect”. Moreover, the “Ccl2, Il-6, and Il-8 expression after TNF stimulation” value in series [2] is listed as “significantly reduced; also recorded: drastically reduced; also recorded: significantly inhibited”. Moreover, in series [3] (5 days PD, intravitreal), the “ONL thickness (OCT)” value is given as “significant preservation”; the “a-wave and b-wave ERG responses” value is “significantly larger”; the “IBA1+ macrophages in the outer retina” value is “significant reduction”. Also, in series [3] (setting [5]), the “ONL thickness (OCT)” value is given as “significantly greater”; the “a-wave and b-wave ERG responses” value is listed as “significantly higher”; the “IBA1+ macrophages in the outer retina” value is “significant decrease”. Also, in series [3] (5 days PD, intravitreal, versus vehicle/controls), the “TUNEL+ photoreceptors (outer retina)” value is “significantly fewer”. For the same molecule, in series [3] (intravitreal injection, mice), the “photoreceptor survival in PD” value is given as “improves photoreceptor survival”.
